Data on 20 compounds can be found in patent US20140073801A1, “PYRROLIDINE DERIVATIVES AS SELECTIVE GLYCOSIDASE INHIBITORS AND USES THEREOF” (Summit Corporation Plc, priority 2011, published 2014).

Where only a bound is given, the exact number is not on record here.

Assay type in all cases: biochemical
One experiment has as its target T1, human OGA (Homo sapiens, UniProt O60502).
T1 construct: made in house
T1 sequence (O60502 1-916): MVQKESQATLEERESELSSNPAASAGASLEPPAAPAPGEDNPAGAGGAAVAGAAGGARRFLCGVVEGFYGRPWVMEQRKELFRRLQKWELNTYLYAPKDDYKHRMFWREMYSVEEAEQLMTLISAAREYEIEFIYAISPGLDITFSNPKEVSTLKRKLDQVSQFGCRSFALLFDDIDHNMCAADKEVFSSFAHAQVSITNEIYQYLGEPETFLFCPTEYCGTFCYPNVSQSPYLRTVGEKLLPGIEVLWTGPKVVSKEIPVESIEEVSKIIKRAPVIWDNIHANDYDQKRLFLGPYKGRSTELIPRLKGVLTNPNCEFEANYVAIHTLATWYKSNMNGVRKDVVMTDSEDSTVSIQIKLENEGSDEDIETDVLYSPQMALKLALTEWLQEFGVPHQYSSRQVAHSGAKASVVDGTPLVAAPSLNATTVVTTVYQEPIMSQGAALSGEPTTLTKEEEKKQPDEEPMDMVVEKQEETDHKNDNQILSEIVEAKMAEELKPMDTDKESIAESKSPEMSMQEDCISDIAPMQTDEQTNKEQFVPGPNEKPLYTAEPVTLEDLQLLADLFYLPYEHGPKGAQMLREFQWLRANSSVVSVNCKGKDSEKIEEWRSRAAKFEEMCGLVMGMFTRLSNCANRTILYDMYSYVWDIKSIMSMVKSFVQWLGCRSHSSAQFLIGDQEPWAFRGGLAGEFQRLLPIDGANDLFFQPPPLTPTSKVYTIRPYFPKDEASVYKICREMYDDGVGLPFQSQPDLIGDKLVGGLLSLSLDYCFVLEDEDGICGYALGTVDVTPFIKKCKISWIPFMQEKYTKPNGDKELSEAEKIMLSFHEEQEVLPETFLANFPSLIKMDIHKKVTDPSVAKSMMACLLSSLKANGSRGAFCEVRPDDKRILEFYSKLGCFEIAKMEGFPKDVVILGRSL
Briefly: Determination of IC50 values for inhibition of human OGA. The procedure: Inhibitors identified from the screen described in Example 1 were evaluated for IC50 using a procedure adapted from Biochem. J. 2009, 420, 221-227. IC50 determination was carried out using a range of inhibitor concentrations from 300 μM to 0.003 μM or 100 μM to 0.001 μM. IC50 values were calculated using XLFit 4.

Experiment [1] deals with human β-hexosaminidase [human placenta] (HexA/B). Put plainly: Determination of IC50 values for inhibition of human β-hexosaminidase. The note with it: ratio. The procedure:
(§1) Inhibitors identified from the screen described in Example 1 were evaluated for IC50 against human β-hexosaminidase [human placenta, Sigma-Aldrich] using a range of inhibitor concentrations from 300 μM to 0.003 μM or 100 μM to 0.001 μM and the following reaction conditions:
(§2) Reactions were carried out at room temperature for thirty minutes and then quenched through the addition of 150 μl 0.5M Na2CO3. Fluorescence readings were taken at excitation wavelength 360 nm and emission wavelength 450 nm. IC50 values were calculated using XLFit 4. The selectivity ratio for inhibition of human O-GlcNAcase over human β-hexosaminidase is defined here as:
(§3) IC50(human β-hexosaminidase)/IC50(Human OGA)

In experiment [2] the target is T2, human β-hexosaminidase [human placenta] (HexA/B).
T2 construct: other: human β-hexosaminidase, human placenta; room temperature, thirty minutes
The description is as above. The note with it: human β-hexosaminidase, human placenta; room temperature, thirty minutes. How it is done: as §1, §2, §3

The term IC50 denotes the concentration at which inhibition is half-maximal. The low end stands for higher potency, the high end for lower potency. As to `CCCCCCN1[C@H](CC(=O)NC2CC2)[C@H](O)[C@H](O)[C@H]1CO` [Compound A049, N-cyclopropyl-2-((2R,3S,4R,5R)-1-hexyl-3,4-dihydroxy-5-(hydroxymethyl)pyrrolidin-2-yl)acetamide], the IC50 against human OGA is 1.06 µM; in experiment [2], more than 300 µM. In addition, in experiment [1], the “Selectivity: IC50(human β-hexosaminidase)/IC50(Human OGA)” value was more than 283.

As to `CCCCCCN1[C@H](CNC(C)=O)[C@H](O)[C@H](O)[C@H]1CO` [Compound A035, N-(((2R,3S,4R,5R)-1-hexyl-3,4-dihydroxy-5-(hydroxymethyl)pyrrolidin-2-yl)methyl)acetamide], the IC50 against human OGA was 3.9 µM; in experiment [2], more than 300 µM. The “Selectivity: IC50(human β-hexosaminidase)/IC50(Human OGA)” value in experiment [1] is reported as more than 76.92.

Regarding `CNC(=O)C[C@@H]1[C@H](O)[C@H](O)[C@@H](CO)N1CCCCc1ccccc1` [Compound A020, 2-((2R,3S,4R,5R)-3,4-dihydroxy-5-(hydroxymethyl)-1-(4-phenylbutyl)pyrrolidin-2-yl)-N-methylacetamide], the IC50 was 0.023 µM on human OGA and more than 300 µM in experiment [2]. The “Selectivity: IC50(human β-hexosaminidase)/IC50(Human OGA)” value in experiment [1] is listed as more than 13215.

On to `CNC(=O)C[C@@H]1[C@H](O)[C@H](O)[C@@H](CO)N1CCCNS(=O)(=O)c1ccc(-c2ccccc2)cc1` [Compound A072, 2-((2R,3S,4R,5R)-1-(3-([1,1′-biphenyl]-4-ylsulfonamido)propyl)-3,4-dihydroxy-5-(hydroxymethyl)pyrrolidin-2-yl)-N-methylacetamide], for which the IC50 at human OGA is 0.002 µM; in experiment [2], more than 300 µM. Besides, in experiment [1], the “Selectivity: IC50(human β-hexosaminidase)/IC50(Human OGA)” value is reported as more than 150000.

Consider `CCCCCCN1[C@H](CC(=O)NCC2CCCCC2)[C@H](O)[C@H](O)[C@H]1CO` [Compound A031, N-(cyclohexylmethyl)-2-((2R,3S,4R,5R)-1-hexyl-3,4-dihydroxy-5-(hydroxymethyl)pyrrolidin-2-yl)acetamide], for which the figures for the IC50 (on human OGA; in experiment [2]) were 75.5 µM and more than 300 µM, respectively. Moreover, in experiment [1], the “Selectivity: IC50(human β-hexosaminidase)/IC50(Human OGA)” value is more than 3.97.

Consider `CCNC(=O)C[C@@H]1[C@@H](O)[C@H](O)[C@@H](CO)N1C(=O)CCc1ccccc1` [Compound A069, 2-((2R,3R,4R,5R)-3,4-dihydroxy-5-(hydroxymethyl)-1-(3-phenylpropanoyl)pyrrolidin-2-yl)-N-ethylacetamide], for which the IC50 was 224 µM against human OGA and more than 300 µM in experiment [2]. In addition, in experiment [1], the “Selectivity: IC50(human β-hexosaminidase)/IC50(Human OGA)” value was more than 1.34.

For the compound `CCCCCCN1[C@@H](CO)[C@H](O)[C@H](O)[C@@H]1CC(=O)NC` [Compound A024, 2-((2S,3R,4S,5S)-1-hexyl-3,4-dihydroxy-5-(hydroxymethyl)pyrrolidin-2-yl)-N-methylacetamide], the IC50 at human OGA was 143 µM; in experiment [2], 44 µM. The “Selectivity: IC50(human β-hexosaminidase)/IC50(Human OGA)” value in experiment [1] is given as 0.31.

Regarding `CC(=O)NC[C@H]1N[C@H](CO)[C@@H](O)[C@H]1O` [Compound A033, N-(((2R,3S,4R,5R)-3,4-dihydroxy-5-(hydroxymethyl)pyrrolidin-2-yl)methyl)acetamide], the IC50 was 1.68 µM against human OGA and more than 300 µM in experiment [2]. The “Selectivity: IC50(human β-hexosaminidase)/IC50(Human OGA)” value in experiment [1] is more than 178.57.

On to `CNC(=O)C[C@@H]1[C@H](O)[C@H](O)[C@@H](CO)N1CCCNC(=O)OC(C)(C)C` [Compound A065, tert-butyl (3-((2R,3R,4S,5R)-3,4-dihydroxy-2-(hydroxymethyl)-5-(2-(methylamino)-2-oxoethyl)pyrrolidin-1-yl)propyl)carbamate], for which the IC50 was 0.007 µM against human OGA and 58.4 µM in experiment [2]. The “Selectivity: IC50(human β-hexosaminidase)/IC50(Human OGA)” value in experiment [1] is reported as 8342.

As to `CNC(=O)[C@H]1NC[C@@H](O)[C@@H]1O` [Compound A043, (2S,3R,4R)-3,4-dihydroxy-N-methylpyrrolidine-2-carboxamide], the IC50 at human OGA was determined as 10.2 µM; in experiment [2] it was 14 µM. Moreover, the “Selectivity: IC50(human β-hexosaminidase)/IC50(Human OGA)” value in experiment [1] turned out to be 1.37.

Take `CNC(=O)C[C@@H]1[C@H](O)[C@H](O)[C@@H](CO)N1CCCCCNS(=O)(=O)c1ccc(Oc2ccccc2)cc1` [Compound A067, 2-((2R,3S,4R,5R)-3,4-dihydroxy-5-(hydroxymethyl)-1-(5-(4-phenoxyphenylsulfonamido)pentyl)pyrrolidin-2-yl)-N-methylacetamide]: the IC50 was less than 0.003 µM against human OGA and 15 µM in experiment [2]. Moreover, the “Selectivity: IC50(human β-hexosaminidase)/IC50(Human OGA)” value in experiment [1] is listed as more than 5000.

On to `CCCCCCN1[C@H](CC(=O)NC)[C@H](O)[C@@H](O)[C@@H]1CO` [Compound A032, 2-((2R,3S,4S,5S)-1-hexyl-3,4-dihydroxy-5-(hydroxymethyl)pyrrolidin-2-yl)-N-methylacetamide], for which the figures for the IC50 (against human OGA; in experiment [2]) were 6.07 µM and more than 300 µM, respectively. In experiment [1], the “Selectivity: IC50(human β-hexosaminidase)/IC50(Human OGA)” value is listed as more than 49.4.

For `CCCCCCN1[C@H](CC(=O)NCCC)[C@H](O)[C@H](O)[C@H]1CO` [Compound A023, 2-((2R,3S,4R,5R)-1-hexyl-3,4-dihydroxy-5-(hydroxymethyl)pyrrolidin-2-yl)-N-propylacetamide], the IC50 against human OGA was 0.048 µM; in experiment [2], more than 300 µM. Further, in experiment [1], the “Selectivity: IC50(human β-hexosaminidase)/IC50(Human OGA)” value is recorded as more than 6211.

`CCCCCCCCCN1[C@H](CC(=O)NC(C)C)[C@H](O)[C@H](O)[C@H]1CO` [Compound A014, 2-((2R,3S,4R,5R)-3,4-dihydroxy-5-(hydroxymethyl)-1-nonylpyrrolidin-2-yl)-N-isopropylacetamide]: the values for the IC50 (at human OGA; in experiment [2]) were 3.66 µM and more than 300 µM, respectively. Also, the “Selectivity: IC50(human β-hexosaminidase)/IC50(Human OGA)” value in experiment [1] is on record as more than 81.

As to `CC(C)CNC(=O)C[C@@H]1[C@H](O)[C@H](O)[C@@H](CO)N1CCCc1ccccc1` [Compound A026, 2-((2R,3S,4R,5R)-3,4-dihydroxy-5-(hydroxymethyl)-1-(3-phenylpropyl)pyrrolidin-2-yl)-N-isobutylacetamide], the IC50 against human OGA is 4.39 µM; in experiment [2], more than 300 µM. Further, the “Selectivity: IC50(human β-hexosaminidase)/IC50(Human OGA)” value in experiment [1] is more than 68.34.

In the case of `CNC(=O)C[C@@H]1[C@H](O)[C@H](O)[C@@H](CO)N1CCCCCCCCCO` [Compound A009, 2-((2R,3S,4R,5R)-3,4-dihydroxy-5-(hydroxymethyl)-1-(9-hydroxynonyl)pyrrolidin-2-yl)-N-methylacetamide], the IC50 against human OGA stood at 0.036 µM; in experiment [2] it was 197 µM. In experiment [1], the “Selectivity: IC50(human β-hexosaminidase)/IC50(Human OGA)” value came to 5472.

On to `CCCCN1[C@H](CC(=O)NC)[C@H](O)[C@H](O)[C@H]1CO` [Compound A017, 2-((2R,3S,4R,5R)-1-butyl-3,4-dihydroxy-5-(hydroxymethyl)pyrrolidin-2-yl)-N-methylacetamide], for which the IC50 was 0.056 µM at human OGA and 196 µM in experiment [2]. In experiment [1], the “Selectivity: IC50(human β-hexosaminidase)/IC50(Human OGA)” value worked out at 3500.

On to `CCCCCCN1[C@H](CC(=O)NC)[C@@H](O)[C@H](O)[C@@H]1CO` [Compound A056, 2-((2R,3R,4R,5S)-1-hexyl-3,4-dihydroxy-5-(hydroxymethyl)pyrrolidin-2-yl)-N-methylacetamide], for which the half-inhibitory concentration (IC50) was 0.58 µM at human OGA and 0.0107 µM in experiment [2]. Further, the “Selectivity: IC50(human β-hexosaminidase)/IC50(Human OGA)” value in experiment [1] was 0.02.

As for `CC(C)NC(=O)C[C@H]1N[C@H](CO)[C@@H](O)[C@H]1O` [Compound A013, 2-((2R,3S,4R,5R)-3,4-dihydroxy-5-(hydroxymethyl)pyrrolidin-2-yl)-N-isopropylacetamide], the IC50 is 130 µM at human OGA and more than 300 µM in experiment [2]. Also, the “Selectivity: IC50(human β-hexosaminidase)/IC50(Human OGA)” value in experiment [1] is more than 2.

With `CC(C)CNC(=O)C[C@H]1N[C@H](CO)[C@@H](O)[C@H]1O` [Compound A025, 2-((2R,3S,4R,5R)-3,4-dihydroxy-5-(hydroxymethyl)pyrrolidin-2-yl)-N-isobutylacetamide], the results for the IC50 (on human OGA; in experiment [2]) were 129 µM and more than 300 µM, respectively. The “Selectivity: IC50(human β-hexosaminidase)/IC50(Human OGA)” value in experiment [1] is recorded as more than 2.3.
